The source of these data is patent publication US7863465B2, “Antifungal agents” (Merck Sharp & Dohme Corp., priority 2006, dated 2011).

Structures are written as SMILES. pIC50: −log10 of the molar value.

The target in this assay is T1, glucan synthase (GS) prepared from Candida albicans MY1055 (Candida albicans, UniProt O13428).
T1 construct: Extraction of GS activity from membranes was performed at a protein concentration of 5 mg/mL in extraction buffer; endogenous in cells; host or cells: Candida albicans MY1055 (membranes, detergent extract, product entrapment)
T1 sequence (O13428 1-1897): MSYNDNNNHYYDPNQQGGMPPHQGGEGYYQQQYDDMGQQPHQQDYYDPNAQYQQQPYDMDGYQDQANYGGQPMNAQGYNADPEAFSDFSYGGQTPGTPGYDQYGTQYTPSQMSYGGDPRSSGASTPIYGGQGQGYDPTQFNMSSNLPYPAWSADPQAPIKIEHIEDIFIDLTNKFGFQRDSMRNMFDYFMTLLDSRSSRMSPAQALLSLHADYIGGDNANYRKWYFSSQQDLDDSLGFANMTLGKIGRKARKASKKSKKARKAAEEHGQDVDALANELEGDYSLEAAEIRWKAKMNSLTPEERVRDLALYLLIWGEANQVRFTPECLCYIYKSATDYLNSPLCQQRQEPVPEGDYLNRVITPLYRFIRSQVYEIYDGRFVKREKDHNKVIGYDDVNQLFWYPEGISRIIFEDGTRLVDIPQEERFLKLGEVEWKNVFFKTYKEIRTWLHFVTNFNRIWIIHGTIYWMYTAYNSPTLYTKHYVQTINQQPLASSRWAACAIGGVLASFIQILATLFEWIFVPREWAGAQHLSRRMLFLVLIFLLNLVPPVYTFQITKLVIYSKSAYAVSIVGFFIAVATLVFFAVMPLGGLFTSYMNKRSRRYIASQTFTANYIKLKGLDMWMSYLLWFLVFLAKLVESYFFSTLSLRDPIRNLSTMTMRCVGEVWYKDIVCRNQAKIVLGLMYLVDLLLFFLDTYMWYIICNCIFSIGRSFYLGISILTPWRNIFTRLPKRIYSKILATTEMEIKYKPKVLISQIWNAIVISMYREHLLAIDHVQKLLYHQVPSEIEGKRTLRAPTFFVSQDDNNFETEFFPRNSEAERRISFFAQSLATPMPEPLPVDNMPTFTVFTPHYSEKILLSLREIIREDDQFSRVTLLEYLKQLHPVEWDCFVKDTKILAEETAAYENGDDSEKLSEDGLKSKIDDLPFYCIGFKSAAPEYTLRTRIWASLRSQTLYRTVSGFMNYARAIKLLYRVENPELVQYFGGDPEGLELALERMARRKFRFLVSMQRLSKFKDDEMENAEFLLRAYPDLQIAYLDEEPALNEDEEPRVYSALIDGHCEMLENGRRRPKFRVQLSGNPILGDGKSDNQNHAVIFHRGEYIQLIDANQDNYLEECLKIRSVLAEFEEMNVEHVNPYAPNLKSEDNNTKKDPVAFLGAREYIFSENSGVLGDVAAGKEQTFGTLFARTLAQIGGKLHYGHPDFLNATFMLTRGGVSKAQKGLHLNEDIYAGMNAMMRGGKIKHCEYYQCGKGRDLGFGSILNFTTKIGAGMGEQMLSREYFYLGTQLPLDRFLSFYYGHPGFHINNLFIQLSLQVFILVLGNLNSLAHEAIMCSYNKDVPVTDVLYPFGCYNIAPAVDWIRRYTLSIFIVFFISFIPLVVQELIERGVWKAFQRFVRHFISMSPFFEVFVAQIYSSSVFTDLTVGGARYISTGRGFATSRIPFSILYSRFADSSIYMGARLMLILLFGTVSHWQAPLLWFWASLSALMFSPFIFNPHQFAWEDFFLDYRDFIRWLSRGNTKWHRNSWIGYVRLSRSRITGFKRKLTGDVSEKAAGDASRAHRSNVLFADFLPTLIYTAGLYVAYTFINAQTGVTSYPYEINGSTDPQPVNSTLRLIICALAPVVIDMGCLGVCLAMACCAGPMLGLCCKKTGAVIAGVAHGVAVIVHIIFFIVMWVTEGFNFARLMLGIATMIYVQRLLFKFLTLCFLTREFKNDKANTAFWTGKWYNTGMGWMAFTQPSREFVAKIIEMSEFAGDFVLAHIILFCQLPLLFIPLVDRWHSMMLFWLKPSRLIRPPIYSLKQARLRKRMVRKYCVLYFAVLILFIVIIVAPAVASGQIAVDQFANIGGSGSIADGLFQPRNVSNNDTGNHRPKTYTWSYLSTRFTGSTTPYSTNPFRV
T1 sequence (O42825 whole entry partner): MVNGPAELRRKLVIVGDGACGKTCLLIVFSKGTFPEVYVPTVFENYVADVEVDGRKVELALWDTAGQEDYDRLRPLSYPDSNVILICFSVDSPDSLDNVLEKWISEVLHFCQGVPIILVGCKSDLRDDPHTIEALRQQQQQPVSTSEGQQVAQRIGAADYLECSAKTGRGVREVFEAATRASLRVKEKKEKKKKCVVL
As to the kind of experiment: Glucan synthase inhibition (polymerization assay, 96-well, 3H-UDPG incorporation). As to conditions: glucan synthase from C. albicans MY1055. It counts as biochemical. The method, then:
The in vitro evaluation of glucan synthase inhibitory activity of compounds was measured in a polymerization assay in 96-well format. Each well contained 100 μL of ^3H-UDPG at 0.5 mM (6000 to 8000 dpm/nmol), 50 mM HEPES pH 7.5 (Sigma), 10% w/v glycerol (Sigma), 1.5 mg/mL bovine serum albumin (Sigma A 9647. Lot 44H0190), 25 mM KF (Fisher), 1 mM EDTA (Gibco Ultrapure), 25 μM GTP-γ-S, enzyme sufficient to give 3 to 6 nmoles incorporation during the 60 min incubation at 22° C., and test compound added from wells in 3-fold serial dilutions in 100% DMSO (1 μL/well). The reaction was stopped by the addition of 100 μL of 20% trichloroacetic acid. Plates were chilled for a minimum of 10 min, and precipitated glucan collected by filtration on GF/C plates (Packard Unifilter®-96), washed with 5 cycles of water (about 1 mL/well each cycle) using a Packard Filtermate Harvester. 40 μL/well scintillation fluid (Packard Ultima Gold TM-XR) was added and the sealed plates counted in a Wallac Beta counter in top-counting mode at an efficiency of approximately 40%.
Stock solutions were stored at 10 mg/mL in DMSO at −20° C. For each new enzyme preparation, the initial titration performed started at 1 mg/mL, which was prepared by making a 10-fold dilution in DMSO (5 μL to 50 μL). 40 μL of this stock was placed in column 12 of a round-bottomed 96-well microtiter plate. 40 μL DMSO was added to columns 1 to 11 in the same row and ten 3-fold serial dilutions performed, by transferring 20 μL from column 12 to column 11 etc., with 4 mixings before each transfer. No test compound was transferred to from column 2 to column 1. Duplicate aliquots of 1 μL of all 12 dilutions were then transferred to the side walls of a 96-well Bioblock 1.1 mL plate (Fisherbrand) to create two rows.
The results were tabulated and a standard plate background was subtracted and the net count transpose-pasted into a Prism file, with final compound concentrations used in ng/mL. Graphs were created in Prism software, using the average of two determinations, and using Prism's curve fitting program (sigmoidal dose response non-linear regression).
Routine analysis was performed with glucan synthase (GS) prepared from Candida albicans MY1055 by the following procedure: MY1055 was grown in 10 liters YPD medium (10 g yeast extract, 20 g tryptone, 20 g glucose per liter) with vigorous shaking at 30° C., to early stationary phase. Cells were harvested by centrifugation, the pellet was washed and frozen at −70° C. until breakage. Thawed pellets were shaken with an equal volume of breakage buffer (50 mM HEPES pH 7.4, 10% glycerol, 1 mM EDTA, 1 mM PMSF, 1 mM DTT) and 4 times their weight of 0.5 mm acid washed glass beads for 2 hours at 4° C. Extent of breakage was assessed visually at 40× magnification. For C. parapsilosis strains, shaking was extended to 3 hours to maximize breakage. After low speed centrifugation to remove cell debris, the supernatant was centrifuged at 100,000×g for 60 min. to separate membranes plus ribosomes from cytoplasmic components. Membranes were further washed two additional times with breakage buffer using the same centrifugation conditions and finally suspended in breakage buffer at 25 to 30 mg/mL protein (Biorad) for storage at −70° C. Extraction of GS activity from membranes was performed at a protein concentration of 5 mg/mL in extraction buffer (50 mM NaPO4 pH 7.5, 0.1 M KCl, 0.1M Na citrate, 20% glycerol, 5 μM GTP-γ-S, 1 mM DTT, 1 mM PMSF, 3 μg/mL pepstatin) plus 0.25% W1 by gentle mixing at 4° C. for 60 min, followed by centrifugation at 100,000×g for 60 min. After centrifugation, clear supernatant was removed from a pellet consisting of a hard layer usually with small amounts of gelatinous unextracted membranes above it. […]
`CC(=O)O[C@@H]1C[C@@]23COC[C@](C)([C@@H]2CC[C@H]2C3=CC[C@@]3(C)[C@H](C(=O)O)[C@@](C)([C@H](C)C(C)C)CC[C@]23C)[C@H]1OCCN` [Example 1, (1S,2R,3R,4aR,6aS,7R,8R,10aR,10bR,12aR)-3-(acetyloxy)-2-(2-aminoethoxy)-8-[(1R)-1,2-dimethylpropyl]-1,6a,8,10a-tetramethyl-1,3,4,6,6a,7,8,9,10,10a,10b,11,12,12a-tetradecahydro-2H-1,4a-(methanooxymethano)chrysene-7-carboxylic acid]: the negative logarithm of the IC50 (pIC50) is 7.09.
To `CC(=O)O[C@@H]1C[C@@]23COC[C@](C)(C2CC[C@H]2C3=CC[C@@]3(C)[C@H](C(=O)O)[C@@](C)([C@H](C)C(C)C)CC[C@]23C)[C@H]1OCC(C)N` (stereo partly drawn) [Example 2, (1S,2R,3R,4aR,6aS,7R,8R,10aR,10bR,12aR)-3-(Acetyloxy)-2-(2-aminopropoxy)-8-[(1R)-1,2-dimethylpropyl]-1,6a,8,10a-tetramethyl-1,3,4,6,6a,7,8,9,10,10a,10b,11,12,12a-tetradecahydro-2H-1,4a-(methanooxymethano)chrysene-7-carboxylic acid] belongs 7.41; to `CC(=O)O[C@@H]1C[C@@]23COC[C@](C)([C@@H]2CC[C@H]2C3=CC[C@@]3(C)[C@H](C(=O)O)[C@@](C)([C@H](C)C(C)C)CC[C@]23C)[C@H]1OCCNC(=O)C(N)CN` (stereo partly drawn) [Example 5, (1S,2R,3R,4aR,6aS,7R,8R,10aR,10bR,12aR)-3-(acetyloxy)-2-[2-(2,3-diaminopropionylamino)-ethoxy]-8-[(1R)-1,2-dimethylpropyl]-1,6a,8,10a-tetramethyl-1,3,4,6,6a,7,8,9,10,10a,10b,11,12,12a-tetradecahydro-2H-1,4a-(methanooxymethano)chrysene-7-carboxylic acid], 6.90.
In turn, `CC(=O)O[C@@H]1C[C@@]23COC[C@](C)([C@@H]2CC[C@H]2C3=CC[C@@]3(C)[C@H](C(=O)O)[C@@](C)([C@H](C)C(C)C)CC[C@]23C)[C@H]1OCCNC(=N)N` [Example 6, (1S,2R,3R,4aR,6aS,7R,8R,10aR,10bR,12aR)-3-(acetyloxy)-2-(2-guanidino-ethoxy)-8-[(1R)-1,2-dimethylpropyl]-1,6a,8,10a-tetramethyl-1,3,4,6,6a,7,8,9,10,10a,10b, 11,12,12a-tetradecahydro-2H-1,4a-(methanooxymethano)chrysene-7-carboxylic acid] gave a pIC50 of 7.71.
To `CC(=O)O[C@@H]1C[C@@]23COC[C@](C)([C@@H]2CC[C@H]2C3=CC[C@@]3(C)[C@H](C(=O)O)[C@@](C)([C@H](C)C(C)C)CC[C@]23C)[C@H]1OCCNCCCN` [Example 8, (1S,2R,3R,4aR,6aS,7R,8R,10aR,10bR,12aR)-3-(acetyloxy)-2-[2-(3-aminopropylamino)-ethoxy]-8-[(1R)-1,2-dimethylpropyl]-1,6a,8,10a-tetramethyl-1,3,4,6,6a,7,8,9,10,10a,10b,11,12,12a-tetradecahydro-2H-1,4a-(methanooxymethano)chrysene-7-carboxylic acid] belongs 7.60; to `CC(=O)O[C@@H]1C[C@@]23COC[C@](C)(C2CC[C@H]2C3=CC[C@@]3(C)[C@H](C(=O)O)[C@@](C)([C@H](C)C(C)C)CC[C@]23C)[C@H]1OCCNC[C@@H](N)CCCCN` (stereo partly drawn) [Example 21, (1S,2R,3R,4aR,6aS,7R,8R,10aR,10bR,12aR)-3-(acetyloxy)-2-[2-((S)-2,6-diaminohexylamino)-ethoxy]-8-[(1R)-1,2-dimethylpropyl]-1,6a,8,10a-tetramethyl-1,3,4,6,6a,7,8,9,10,10a,10b,11,12,12a-tetradecahydro-2H-1,4a-(methanooxymethano)chrysene-7-carboxylic acid], 7.22; to `CC(=O)O[C@@H]1C[C@@]23COC[C@](C)(C2CC[C@H]2C3=CC[C@@]3(C)[C@H](C(=O)O)[C@@](C)([C@H](C)C(C)C)CC[C@]23C)[C@H]1OCCNC(=N)NC(C)(C)C` (stereo partly drawn) [Example 24, (1S,2R,3R,4aR,6aS,7R,8R,10aR,10bR,12aR)-3-(acetyloxy)-2-[2-(N′-tert-butylguanidino)-ethoxy]-8-[(1R)-1,2-dimethylpropyl]-1,6a,8,10a-tetramethyl-1,3,4,6,6a,7,8,9,10,10a,10b,11,12,12a-tetradecahydro-2H-1,4a-(methanooxymethano)chrysene-7-carboxylic acid], 7.48.
To `CC(=O)O[C@@H]1C[C@@]23COC[C@@](C)([C@@H]2CC[C@H]2C3=CC[C@@]3(C)[C@H](C(=O)O)[C@@](C)([C@H](C)C(C)C)CC[C@]23C)[C@H]1OCCCN` [Example 35, (1S,2R,3R,4aR,6aS,7R,8R,10aR,10bR,12aR)-3-(acetyloxy)-2-(3-aminopropoxy)-8-[(1R)-1,2-dimethylpropyl]-1,6a,8,10a-tetramethyl-1,3,4,6,6a,7,8,9,10,10a,10b,11,12,12a-tetradecahydro-2H-1,4a-(methanooxymethano)chrysene-7-carboxylic acid] belongs 7.32.
For `CC(=O)O[C@@H]1C[C@@]23COC[C@](C)(C2CC[C@H]2C3=CC[C@@]3(C)[C@H](C(=O)O)[C@@](C)([C@H](C)C(C)C)CC[C@]23C)[C@H]1OCCCCN` (stereo partly drawn) [Example 40, (1S,2R,3R,4aR,6aS,7R,8R,10aR,10bR,12aR)-3-(acetyloxy)-2-(4-aminobutoxy)-8-[(1R)-1,2-dimethylpropyl]-1,6a,8,10a-tetramethyl-1,3,4,6,6a,7,8,9,10,10a,10b,11,12,12a-tetradecahydro-2H-1,4a-(methanooxymethano)chrysene-7-carboxylic acid], the pIC50 was 7.29.
`CC(=O)O[C@@H]1C[C@@]23COC[C@](C)([C@@H]2CC[C@H]2C3=CC[C@@]3(C)[C@H](C(=O)O)[C@@](C)([C@H](C)C(C)C)CC[C@]23C)[C@H]1OCC(O)(CO)CO` [Example 44, (1S,2R,3R,4aR,6aS,7R,8R,10aR,10bR,12aR)-3-(acetyloxy)-2-(2,3-dihydroxy-2-hydroxymethylpropoxy)-8-[(1R)-1,2-dimethylpropyl]-1,6a,8,10a-tetramethyl-1,3,4,6,6a,7,8,9,10,10a,10b,11,12,12a-tetradecahydro-2H-1,4a-(methanooxymethano)chrysene-7-carboxylic acid]: the pIC50 was 6.21.
With `CC(=O)O[C@@H]1C[C@@]23COC[C@](C)([C@@H]2CC[C@H]2C3=CC(=O)[C@@]3(C)[C@H](C(=O)O)[C@@](C)([C@H](C)C(C)C)CC[C@]23C)[C@H]1OCCN` [Example 47, (1S,2R,3R,4aR,6aS,7R,8R,10aR,10bR,12aR)-3-(acetyloxy)-2-(2-aminoethoxy)-8-[(1R)-1,2-dimethylpropyl]-1,6a,8,10a-tetramethyl-6-oxo-1,3,4,6,6a,7,8,9,10,10a,10b,11,12,12a-tetradecahydro-2H-1,4a-(methanooxymethano)chrysene-7-carboxylic acid], the pIC50 was 7.11.
The value for `CC(=O)O[C@@H]1C[C@@]23COC[C@](C)([C@@H]2CC[C@H]2C3=CC(=O)[C@@]3(C)[C@H](C(=O)O)[C@@](C)([C@H](C)C(C)C)CC[C@]23C)[C@H]1OCCNC(=N)N` [Example 48, (1S,2R,3R,4aR,6aS,7R,8R,10aR,10bR,12aR)-3-(acetyloxy)-2-(2-guanidinoethoxy)-8-[(1R)-1,2-dimethylpropyl]-1,6a,8,10a-tetramethyl-6-oxo-1,3,4,6,6a,7,8,9,10,10a,10b,11,12,12a-tetradecahydro-2H-1,4a-(methanooxymethano)chrysene-7-carboxylic acid] was 7.54.

The term pIC50 denotes −log10 of the IC50, conventionally taken in molar units.
